Values quoted from earlier work, collected in patent publication US8343565B2, “Method for producing grape extract with high ORAC value and grape extract so produced” (Ethical Naturals, Inc., priority 2008, dated 2013).

Conditions: exemplary ORAC scores listed in the background

Compound | ORAC scores for common vegetables and fruits
O=C1O[C@H]([C@@H](O)CO)C(O)=C1O [vitamin C] | 5,000 μmol TE/g
vitamin E | 1,200 μmol TE/g
